Measurements published in PMC6112376, “Comprehensive Analyses and Prioritization of Tox21 10K Chemicals Affecting Mitochondrial Function by in-Depth Mechanistic Studies” (Environmental Health Perspectives, 2018).
Where two headings read alike, the source gives them in different places.

Columns and labels:
rat primary hepatocytes [1] = system: rat primary hepatocytes
[2] = system: Nrf2/ARE (ARE-bla HepG2 cells); assay: ARE β-lactamase reporter gene assay; assay type: cell-based, human; details: Homo sapiens, read-out: ARE (HepG2) EC50
[3] = system: isolated rat liver mitochondria; assay: Oxygen consumption, Clark-type oxygen electrode; assay type: biochemical
rat primary hepatocytes [4] = assay: MMP assay in rat primary hepatocytes; details: for IC50: Rattus norvegicus, Hepatocyte
HepG2 cells [5] = assay: ROS-Glo hydrogen peroxide (ROS) assay; assay type: cell-based, human; details: Homo sapiens, read-out: ROS (HepG2) EC50
HepG2 cells [6] = details: cited from earlier work; for IC50: read-out: MMP assays IC50 (µM), qHTS-HepG2
HepG2 cells [7] = system: HepG2 cells
HepG2 cells [8] = assay: Intracellular ATP content (cell viability) assay; assay type: cell-based, human
[9] = system: HeLa cells expressing YFP-Parkin; assay: Parkin translocation assay; assay type: cell-based, human
[10] = system: p53 (p53-bla HCT-116 cells); assay: p53 β-lactamase reporter gene assay; assay type: cell-based, human
HepG2 cells [11] = assay: cells; details: Homo sapiens; for Emax: HepG2, read-out: MMP assays efficacy (%) HepG2
[12] = system: Caenorhabditis elegans (Bristol N2); assay: C. elegans larval development and growth assay; details: 0.5–100μM; 48 h exposure
[13] = system: Caenorhabditis elegans strain PE255; assay: In vivo C. elegans ATP status assay
hNSC = assay: MMP assay in human neural stem cells (hNSC); assay type: cell-based; details: Homo sapiens, Neural stem cell; 1 h treatment; fresh re-sourced stocks; mean±SD of three experiments; read-out: hNSC IC50 (MMP)
[14] = 1 h, read-out: Rat hepatocytes IC50 (MMP)
[15] = read-out: MMP assays IC50 (µM) Rat Hepatocytes
[16] = HepG2, 1 h, read-out: HepG2 IC50 Glucose (MMP)
[17] = HepG2, read-out: MMP assays IC50 (µM) HepG2

## CO[C@H]1/C=C/O[C@@]2(C)Oc3c(C)c(O)c4c(O)c(c(/C=N/N5CCN(C)CC5)c(O)c4c3C2=O)NC(=O)/C(C)=C\C=C\[C@H](C)[C@H](O)[C@@H](C)[C@@H](O)[C@@H](C)[C@H](OC(C)=O)[C@@H]1C [Rifampicin, reference compound]
Rat primary hepatocytes [1]
  MMP assays efficacy (%) Rat Hepatocytes: -68±40%
  Rat hepatocytes (efficacy) (MMP): 41.4±5.71 ( −97.5±6.10 ) %
[2]; HepG2, 16 h
  EC50: 45.2 µM
[3]
  Potential Mechanism: Inactive
[3]; 4 µM
  I-ADP, % of control (O2 consumption rate): 85 (46.4) % of control
  I-sub, % of control (O2 consumption rate): 89 (11.7) % of control
  II-ADP, % of control (O2 consumption rate): 95 (83.4) % of control
  II-sub, % of control (O2 consumption rate): 96 (23.5) % of control
[3]; 20 µM
  I-ADP, % of control (O2 consumption rate): 71 (39.1) % of control
  I-sub, % of control (O2 consumption rate): 86 (11.3) % of control
  II-ADP, % of control (O2 consumption rate): 95 (84.2) % of control
  II-sub, % of control (O2 consumption rate): 107 (26.2) % of control
Rat primary hepatocytes [4]; [14]
  IC50: 41.4 µM
Rat primary hepatocytes [4]; [15]
  IC50: 6.15 ± 2.2 µM
HepG2 cells [5]; HepG2, 2 h
  EC50: 34.5 µM
HepG2 cells [6]
  MMP assays efficacy (%) qHTS-HepG2: -94±13%
  IC50: 25.1 ± 6.38 µM
HepG2 cells [7]
  HepG2 IC50 Galactose (MMP): Inactive
HepG2 cells [8]
  ATP (HepG2, galactose) IC50: Inactive
  ATP (HepG2, glucose) IC50: Inactive
[9]
  Parkin recruitment: Inactive
[10]
  p53 (HCT-116) EC50: Inactive
HepG2 cells [11]; [16]
  IC50: 63.2 µM
HepG2 cells [11]; [17]
  IC50: 15.5 µM
HepG2 cells [11]
  Emax: 85%

## O=C(O)c1cccnc1Nc1cccc(C(F)(F)F)c1 [Niflumic acid, reference compound]
[2]; HepG2, 16 h incubation, mean±SD of three experiments
  EC50: 25.1 ± 2.05 µM
[3]; 0.032 µM, glutamate/malate driven state 3 respiration, isolated rat liver mitochondria
  I-ADP, % of control (O2 consumption rate): 91 (32.6) % of control
[3]; 0.032 µM, glutamate/malate driven state 4 respiration, isolated rat liver mitochondria
  I-sub, % of control (O2 consumption rate): 116 (11.1) % of control
[3]; 0.032 µM, succinate-driven state 3 respiration, isolated rat liver mitochondria
  II-ADP, % of control (O2 consumption rate): 90 (48.1) % of control
[3]; 0.032 µM, succinate-driven state 4 respiration, isolated rat liver mitochondria
  II-sub, % of control (O2 consumption rate): 110 (18.1) % of control
[3]; 0.16 µM, glutamate/malate driven state 3 respiration, isolated rat liver mitochondria
  I-ADP, % of control (O2 consumption rate): 82 (29.2) % of control
[3]; 0.16 µM, glutamate/malate driven state 4 respiration, isolated rat liver mitochondria
  I-sub, % of control (O2 consumption rate): 111 (10.7) % of control
[3]; 0.16 µM, succinate-driven state 3 respiration, isolated rat liver mitochondria
  II-ADP, % of control (O2 consumption rate): 101 (54.0) % of control
[3]; 0.16 µM, succinate-driven state 4 respiration, isolated rat liver mitochondria
  II-sub, % of control (O2 consumption rate): 124 (20.4) % of control
[3]; 0.8 µM, glutamate/malate driven state 3 respiration, isolated rat liver mitochondria
  I-ADP, % of control (O2 consumption rate): 91 (32.5) % of control
[3]; 0.8 µM, glutamate/malate driven state 4 respiration, isolated rat liver mitochondria
  I-sub, % of control (O2 consumption rate): 131 (12.6) % of control
[3]; 0.8 µM, succinate-driven state 3 respiration, isolated rat liver mitochondria
  II-ADP, % of control (O2 consumption rate): 89 (47.6) % of control
[3]; 0.8 µM, succinate-driven state 4 respiration, isolated rat liver mitochondria
  II-sub, % of control (O2 consumption rate): 135 (22.1) % of control
[3]; 4 µM, glutamate/malate driven state 3 respiration, isolated rat liver mitochondria
  I-ADP, % of control (O2 consumption rate): 86 (30.8) % of control
[3]; 4 µM, glutamate/malate driven state 4 respiration, isolated rat liver mitochondria
  I-sub, % of control (O2 consumption rate): 180 (17.3) % of control
[3]; 4 µM, succinate-driven state 3 respiration, isolated rat liver mitochondria
  II-ADP, % of control (O2 consumption rate): 96 (51.1) % of control
[3]; 4 µM, succinate-driven state 4 respiration, isolated rat liver mitochondria
  II-sub, % of control (O2 consumption rate): 221 (36.2) % of control
[3]; 20 µM, glutamate/malate driven state 3 respiration, isolated rat liver mitochondria
  I-ADP, % of control (O2 consumption rate): 101 (36.0) % of control
[3]; 20 µM, glutamate/malate driven state 4 respiration, isolated rat liver mitochondria
  I-sub, % of control (O2 consumption rate): 380 (36.5) % of control
[3]; 20 µM, succinate-driven state 3 respiration, isolated rat liver mitochondria
  II-ADP, % of control (O2 consumption rate): 54 (28.9) % of control
[3]; 20 µM, succinate-driven state 4 respiration, isolated rat liver mitochondria
  II-sub, % of control (O2 consumption rate): 195 (32.0) % of control
[3]; 100 µM, glutamate/malate driven state 3 respiration, isolated rat liver mitochondria
  I-ADP, % of control (O2 consumption rate): 70 (32.1) % of control
[3]; 100 µM, glutamate/malate driven state 4 respiration, isolated rat liver mitochondria
  I-sub, % of control (O2 consumption rate): 234 (36.2) % of control
[3]; 100 µM, succinate-driven state 3 respiration, isolated rat liver mitochondria
  II-ADP, % of control (O2 consumption rate): 23 (16.4) % of control
[3]; 100 µM, succinate-driven state 4 respiration, isolated rat liver mitochondria
  II-sub, % of control (O2 consumption rate): 56 (17.7) % of control
[3]; mitochondrial respiration in isolated rat liver mitochondria, Clark type oxygen electrode, over tested concentrations
  Potential Mechanism: Uncoupler at low concentrations (0.16-4 µM), and Uncoupler + inhibitor at high concentrations ( 20-100 µM)
Rat primary hepatocytes [4]; % of positive control, mean±SD of three experiments
  Rat hepatocytes (efficacy) (MMP): −98.8±9.27%
Rat primary hepatocytes [4]; [14]
  IC50: 19.9 ± 1.35 µM
Rat primary hepatocytes [4]; [15]
  IC50: 6.71 ± 1.14 µM
Rat primary hepatocytes [4]; rat hepatocytes, mean ± SD of three experiments
  MMP assays efficacy (%) Rat Hepatocytes: -127±56%
[12]
  effect on larval growth (in words): did not affect growth
[13]; 0.5–100μM, 24 h exposure
  effect on ATP content (in words): statistically significant decreases in ATP content
[13]; Caenorhabditis elegans, read-out: LEC LUM: lowest effect concentration for luminescence, a measure of nematode ATP content
  minimal effective concentration: 100 µM
HepG2 cells [5]; HepG2, 2 h treatment, mean±SD of three experiments
  EC50: 6.35 ± 2.16 µM
HepG2 cells [6]
  MMP assays efficacy (%) qHTS-HepG2: -113±5%
  IC50: 13 ± 2.17 µM
hNSC
  IC50: 38.3 ± 4.41 µM
HepG2 cells [8]; 5 mM glucose, 40 h treatment, mean±SD of three experiments
  ATP (HepG2, glucose) IC50: Inactive
HepG2 cells [8]; 10 mM galactose, 40 h treatment, mean±SD of three experiments
  ATP (HepG2, galactose) IC50: Inactive
[9]; HeLa cells stably expressing YFP-Parkin, treated for 2 h
  Parkin recruitment: Inactive
HepG2 cells [11]; HepG2, 1 h, read-out: HepG2 IC50 Galactose (MMP)
  IC50: 42.8 µM
HepG2 cells [11]; [16]
  IC50: 44.6 ± 3.02 µM
HepG2 cells [11]; [17]
  IC50: 15.5 µM
HepG2 cells [11]
  Emax: 114%
